In patent US20230165252A1, “ACTIVE COMPOUND COMBINATIONS” (Bayer Aktiengesellschaft, priority 2020, published 2023):
Where “and” joins values, the source holds several entries; their conditions need not be identical. Identical values can stand only once. Like-named read-outs stand apart in the source and are kept apart here.

What was measured:
Type in all cases: cell-based
Botrytis cinerea = assay: in vitro-Test with Botrytis cinerea (microtiter growth inhibition)
Method: (§1) The degree of efficacy expressed in % is denoted: 0% means an efficacy, which corresponds to that of the control, while an efficacy of 100% means that no disease is observed.
(§2) If the actual fungicidal activity exceeds the calculated value, then the activity of the combination is super-additive, i.e. a synergistic effect exists. In this case, the efficacy, which was actually observed, must be greater than the value for the expected efficacy (E), that was calculated from the abovementioned formula.
(§3) Example: In Vitro-Test with Fungal Microorganisms
(§4) Wells of 96-well microtiter plates are filled with 10 μl of a preparation of test compound or compound combination in methanol+emulsifier alkylaryl-polyglycol-ether. Thereafter, the solvent is evaporated in a hood. At the next step, 100 μl of liquid potato dextrose medium is given into each well, that has been amended with an appropriate concentration of spores or mycelium suspension of the test fungus.
(§5) With the aid of a photometer, the extinction in all wells is measured at the wavelength of 620 nm.
(§6) The microtiter plates are incubated at 20° C. and 85% relative humidity. The inhibition of growth is determined again photometrically 3-5 days after the application. Efficacy is calculated in relation to the untreated control, 0% efficacy means fungal growth as high as in untreated control while 100% efficacy means no fungal growth is measured.

Parastagonospora nodorum = assay: in vitro-Test with Parastagonospora nodorum (microtiter growth inhibition); settings: compound alone
Method: as §1, §2, §3, §4, §5, §6

[1] = tested on: Ustilago segetum var. avenae; assay: in vitro-Test with Ustilago segetum var. avenae (microtiter growth inhibition)
Method: as §1, §2, §3, §4, §5, §6

Cercospora beticola = assay: in vitro-Test with Cercospora beticola (microtiter growth inhibition); settings: alone
Method: as §1, §2, §3, §4, §5, §6

Cordana musae = assay: in vitro-Test with Cordana musae (microtiter growth inhibition); settings: single substance
Method: as §1, §2, §3, §4, §5, §6

Diaporthe citri = assay: in vitro-Test with Diaporthe citri (microtiter growth inhibition)
Method: as §2, §3, §4, §5, §6

Fusarium culmorum = assay: in vitro-Test with Fusarium culmorum (microtiter growth inhibition); settings: Fusarium culmorum, read-out: Efficacy
Method: as §1, §2, §3, §4, §5, §6

Alternaria alternate = assay: in vitro-Test with Alternaria alternate (microtiter growth inhibition)
Method: as §1, §2, §3, §4, §5, §6

[2] = Cercospora beticola, read-out: Efficacy %
[3] = Diaporthe citri, applied alone, read-out: Efficacy
[4] = Diaporthe citri, read-out: Efficacy

CC(O)(Cn1cncn1)c1ccc(Oc2ccc(Cl)cc2)cc1C(F)(F)F (stereo not shown) [(1.055) mefentrifluconazole]
Efficacy % (Botrytis cinerea; single active at 0.008 ppm): 0%
Efficacy % (Botrytis cinerea; single active at 0.04 ppm): 9% and 0%
Efficacy % (Botrytis cinerea; single active at 0.2 ppm): 60% and 96%
Efficacy % (Botrytis cinerea; single active at 1.0 ppm): 100%
Efficacy % (Parastagonospora nodorum; 0.008 ppm): 81%
Efficacy % (Parastagonospora nodorum; 0.04 ppm): 98%
Efficacy % (Parastagonospora nodorum; 0.2 ppm): 99%
Efficacy % ([1]; compound alone, 0.008 ppm): 34%
Efficacy % ([1]; compound alone, 0.04 ppm): 87%
Efficacy % ([1]; compound alone, 0.2 ppm): 98%
Efficacy % ([1]; compound alone, 1.0 ppm): 100%

COc1ccnc(C(=O)N[C@H]2COC(=O)[C@H](Cc3ccccc3)[C@@H](OC(=O)C(C)C)[C@H](C)OC2=O)c1OCOC(=O)C(C)C [(3.025) fenpicoxamid]
Efficacy % (Botrytis cinerea; single active at 0.04 ppm): 0%
Efficacy % (Botrytis cinerea; single active at 0.2 ppm): 13%
Efficacy % (Botrytis cinerea; single active at 1.0 ppm): 0%
Efficacy % (Botrytis cinerea; single active at 5.0 ppm): 34%
Efficacy % ([1]; compound alone, 0.04 ppm): 3%
Efficacy % ([1]; compound alone, 0.2 ppm): 0%
Efficacy % ([1]; compound alone, 1.0 ppm): 0%
Efficacy % ([1]; compound alone, 5.0 ppm): 0%

N#Cc1sc2c(=O)c3ccccc3c(=O)c=2sc1C#N [(5.010) dithianon]
Efficacy % (Botrytis cinerea; single active at 20 ppm): 100%
inhibition of growth at 0.8 ppm ([1]; compound alone, 0.8 ppm, read-out: Efficacy %): 11%
inhibition of growth at 20 ppm ([1]; compound alone, 20 ppm, read-out: Efficacy %): 98%

Cc1ccc(C(F)(F)CNC(=O)c2c(Oc3cccc(C4CC4)c3F)nnc(Cl)c2C)c(C)c1 [Compound 1-655]
Efficacy % (Cercospora beticola; 0.004 ppm): 0%
Efficacy % (Cercospora beticola; 0.020 ppm): 0%
Efficacy % (Cercospora beticola; 0.1 ppm): 0%
Efficacy % (Cercospora beticola; 0.5 ppm): 7%

Fc1ccc(Oc2ccnc3cc(Cl)cc(Cl)c23)cc1 [Compound 13.005, quinoxyfen]
inhibition of growth at 0.08 ppm (Cercospora beticola; [2]): 0%
inhibition of growth at 0.4 ppm (Cercospora beticola; Cercospora beticola, 0.4 ppm, read-out: Efficacy %): 2%
inhibition of growth at 10 ppm (Cercospora beticola; [2]): 20%
inhibition of growth at 2 ppm (Cordana musae; Neocordana musae, 2 ppm, read-out: Efficacy): 1%
inhibition of growth at 10 ppm (Cordana musae; Neocordana musae, 10 ppm, read-out: Efficacy): 15%
inhibition of growth at 0.4 ppm (Diaporthe citri; [3]): 0%
inhibition of growth at 10 ppm (Diaporthe citri; [3]): 54%

O=C1c2ccccc2C(=O)N1SC(Cl)(Cl)Cl [folpet]
inhibition of growth at 0.08 ppm (Cercospora beticola; [2]): 7%
inhibition of growth at 2 ppm (Cercospora beticola; Cercospora beticola, 2 ppm, read-out: Efficacy %): 100%
inhibition of growth at 10 ppm (Cercospora beticola; [2]): 100%
inhibition of growth at 0.4 ppm (Fusarium culmorum; 0.4 ppm): 0%
inhibition of growth at 2 ppm (Fusarium culmorum; 2 ppm): 62%
inhibition of growth at 10 ppm (Fusarium culmorum; 10 ppm): 100%
inhibition of growth at 0.08 ppm (Diaporthe citri; [4]): 20%
inhibition of growth at 0.4 ppm (Diaporthe citri; [4]): 33%
inhibition of growth at 2 ppm (Diaporthe citri; Diaporthe citri, 2 ppm, read-out: Efficacy): 98%
inhibition of growth at 0.08 ppm (Diaporthe citri; [3]): 0%
inhibition of growth at 0.4 ppm (Diaporthe citri; [3]): 53%
inhibition of growth at 10 ppm (Diaporthe citri; [3]): 99%
inhibition of growth at 0.4 ppm (Alternaria alternate; Alternaria, alone, read-out: Efficacy %): 0%
inhibition of growth at 0.08 ppm (Alternaria alternate; Alternaria, applied alone, 0.08 ppm, read-out: Efficacy): 5%
inhibition of growth at 0.4 ppm (Alternaria alternate; Alternaria, applied alone, read-out: Efficacy): 1%
inhibition of growth at 2 ppm (Alternaria alternate; Alternaria, applied alone, 2 ppm, read-out: Efficacy): 100%
inhibition of growth at 10 ppm (Alternaria alternate; Alternaria, applied alone, 10 ppm, read-out: Efficacy): 100%
inhibition of growth at 0.08 ppm ([1]; single compound, 0.08 ppm, read-out: Efficacy %): 12%

CCO[PH](=O)[O-].CCO[PH](=O)[O-].CCO[PH](=O)[O-].[Al+3] [fosetylaluminium]
Efficacy (Cordana musae; 0.8 ppm): 0%
Efficacy (Cordana musae; 4 ppm): 12%
Efficacy (Cordana musae; 20 ppm): 0%
Efficacy (Diaporthe citri; applied alone, 0.8 ppm): 22%
Efficacy (Diaporthe citri; applied alone, 4 ppm): 31%
Efficacy (Diaporthe citri; applied alone, 20 ppm): 4%
Efficacy (Diaporthe citri; applied alone, 100 ppm): 0%
Efficacy % (Alternaria alternate; 4 ppm, alone): 8%
Efficacy % (Alternaria alternate; 20 ppm, alone): 27%
Efficacy % (Alternaria alternate; 100 ppm, alone): 37%
